Data on twelve compounds can be found in BindingDB's records for doi:10.1016/0014-2999(89)90363-4 (Novo Industri, 1989).

Targets include Histamine H1 receptor (Rattus norvegicus, UniProt P31390); D(2) dopamine receptor (Rattus norvegicus, UniProt P61169); D(1A) dopamine receptor (Rattus norvegicus, UniProt P18901).
Assay [1] addresses Beta-1 adrenergic receptor (Rattus norvegicus, UniProt P18090).
In assay [2] the target is T1, Alpha-2C adrenergic receptor (Rattus norvegicus, UniProt P22086).
T1 sequence (P22086 whole entry): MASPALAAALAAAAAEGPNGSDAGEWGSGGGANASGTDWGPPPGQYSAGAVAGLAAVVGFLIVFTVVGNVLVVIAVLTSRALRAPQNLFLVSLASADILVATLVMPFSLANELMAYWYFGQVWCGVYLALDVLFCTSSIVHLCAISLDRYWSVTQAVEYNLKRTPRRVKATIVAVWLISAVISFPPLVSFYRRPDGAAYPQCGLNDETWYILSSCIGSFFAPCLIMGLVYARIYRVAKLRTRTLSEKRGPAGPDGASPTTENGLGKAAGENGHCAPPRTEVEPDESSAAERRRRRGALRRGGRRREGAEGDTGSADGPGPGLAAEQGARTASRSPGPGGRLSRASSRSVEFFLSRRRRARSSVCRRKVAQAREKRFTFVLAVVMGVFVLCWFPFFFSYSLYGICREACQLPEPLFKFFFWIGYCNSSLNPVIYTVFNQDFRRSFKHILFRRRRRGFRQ

The target of assay [3] is T2, 5-hydroxytryptamine receptor 1A (Rattus norvegicus, UniProt P19327).
T2 sequence (P19327 whole entry): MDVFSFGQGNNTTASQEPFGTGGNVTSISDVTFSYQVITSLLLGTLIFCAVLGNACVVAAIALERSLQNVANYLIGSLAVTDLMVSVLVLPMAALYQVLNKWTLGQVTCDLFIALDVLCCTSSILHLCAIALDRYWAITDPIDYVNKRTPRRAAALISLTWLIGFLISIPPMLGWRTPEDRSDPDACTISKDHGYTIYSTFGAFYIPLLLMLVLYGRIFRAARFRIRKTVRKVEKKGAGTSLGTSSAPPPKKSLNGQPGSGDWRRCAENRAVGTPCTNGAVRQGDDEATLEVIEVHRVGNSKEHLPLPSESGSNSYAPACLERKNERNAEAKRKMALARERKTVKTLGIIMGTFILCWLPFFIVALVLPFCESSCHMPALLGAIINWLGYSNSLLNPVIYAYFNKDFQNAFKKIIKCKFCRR

The target of assay [4] is Gamma-aminobutyric acid receptor subunit alpha-1 (Rattus norvegicus, UniProt P62813).
Chain of Gamma-aminobutyric acid receptor subunit alpha-1 (P62813 whole entry): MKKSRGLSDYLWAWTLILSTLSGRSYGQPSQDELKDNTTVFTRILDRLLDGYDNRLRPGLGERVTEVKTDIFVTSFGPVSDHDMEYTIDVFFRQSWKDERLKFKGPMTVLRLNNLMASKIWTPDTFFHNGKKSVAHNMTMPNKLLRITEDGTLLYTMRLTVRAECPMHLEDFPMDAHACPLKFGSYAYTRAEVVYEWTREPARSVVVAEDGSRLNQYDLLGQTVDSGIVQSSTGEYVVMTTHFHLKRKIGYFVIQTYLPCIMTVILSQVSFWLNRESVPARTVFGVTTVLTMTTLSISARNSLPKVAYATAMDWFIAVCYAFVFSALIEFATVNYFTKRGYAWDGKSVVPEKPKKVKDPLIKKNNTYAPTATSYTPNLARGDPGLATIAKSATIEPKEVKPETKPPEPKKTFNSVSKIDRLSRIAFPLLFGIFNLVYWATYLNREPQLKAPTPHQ
Assay [5] deals with T3, Muscarinic acetylcholine receptor M2 (Rattus norvegicus, UniProt P10980).
T3 sequence (P10980 whole entry): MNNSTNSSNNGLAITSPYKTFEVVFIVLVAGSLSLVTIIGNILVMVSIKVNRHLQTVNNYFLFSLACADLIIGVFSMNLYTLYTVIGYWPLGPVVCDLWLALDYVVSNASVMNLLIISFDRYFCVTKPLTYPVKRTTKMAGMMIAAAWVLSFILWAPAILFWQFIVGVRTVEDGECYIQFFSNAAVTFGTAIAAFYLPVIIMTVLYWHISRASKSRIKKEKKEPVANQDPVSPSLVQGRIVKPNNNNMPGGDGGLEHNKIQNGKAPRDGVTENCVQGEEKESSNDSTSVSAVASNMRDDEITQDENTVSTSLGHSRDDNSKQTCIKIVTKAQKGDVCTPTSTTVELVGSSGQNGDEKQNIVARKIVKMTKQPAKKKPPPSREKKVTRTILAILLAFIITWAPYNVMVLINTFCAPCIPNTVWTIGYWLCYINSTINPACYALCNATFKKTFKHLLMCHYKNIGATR

Assay [6] concerns the target Norepinephrine transporter (Rattus norvegicus, UniProt Q9JIA2).
For assay [7], the target named is Sodium-dependent serotonin transporter (Rattus norvegicus, UniProt P31652).
Chain of Sodium-dependent serotonin transporter (P31652 whole entry): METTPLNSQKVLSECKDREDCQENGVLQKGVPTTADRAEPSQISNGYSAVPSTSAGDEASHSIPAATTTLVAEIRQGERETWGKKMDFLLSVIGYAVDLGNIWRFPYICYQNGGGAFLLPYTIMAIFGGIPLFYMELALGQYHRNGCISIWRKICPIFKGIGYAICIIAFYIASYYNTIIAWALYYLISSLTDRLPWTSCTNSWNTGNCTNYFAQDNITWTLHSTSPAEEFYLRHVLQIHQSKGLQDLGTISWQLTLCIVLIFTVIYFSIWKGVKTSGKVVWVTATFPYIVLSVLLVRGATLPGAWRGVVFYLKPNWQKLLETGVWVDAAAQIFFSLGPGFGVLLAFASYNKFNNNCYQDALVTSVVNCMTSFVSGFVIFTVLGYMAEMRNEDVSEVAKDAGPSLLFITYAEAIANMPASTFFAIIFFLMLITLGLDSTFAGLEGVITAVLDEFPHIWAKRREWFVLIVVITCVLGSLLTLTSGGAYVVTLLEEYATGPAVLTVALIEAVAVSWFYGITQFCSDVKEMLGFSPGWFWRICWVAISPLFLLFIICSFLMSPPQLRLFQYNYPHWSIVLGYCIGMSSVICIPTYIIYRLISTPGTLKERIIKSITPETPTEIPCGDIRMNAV
For assay [8], the target named is T4, Alpha-1A adrenergic receptor (Rattus norvegicus, UniProt P43140).
T4 sequence (P43140 whole entry): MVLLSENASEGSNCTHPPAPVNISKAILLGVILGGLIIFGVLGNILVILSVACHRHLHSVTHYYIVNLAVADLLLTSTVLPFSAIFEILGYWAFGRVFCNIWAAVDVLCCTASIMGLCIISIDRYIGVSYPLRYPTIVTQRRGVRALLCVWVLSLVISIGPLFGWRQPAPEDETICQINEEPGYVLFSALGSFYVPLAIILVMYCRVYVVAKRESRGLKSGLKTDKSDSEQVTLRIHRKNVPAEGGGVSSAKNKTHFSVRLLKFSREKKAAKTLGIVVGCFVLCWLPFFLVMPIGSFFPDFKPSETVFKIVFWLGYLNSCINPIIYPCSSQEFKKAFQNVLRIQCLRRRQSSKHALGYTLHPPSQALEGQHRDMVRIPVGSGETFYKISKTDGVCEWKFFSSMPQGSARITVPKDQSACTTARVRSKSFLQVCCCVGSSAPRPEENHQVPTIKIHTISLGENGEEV

The target of assay [9] is 5-hydroxytryptamine receptor 2A (Rattus norvegicus, UniProt P14842).
Chain of 5-hydroxytryptamine receptor 2A (P14842 whole entry): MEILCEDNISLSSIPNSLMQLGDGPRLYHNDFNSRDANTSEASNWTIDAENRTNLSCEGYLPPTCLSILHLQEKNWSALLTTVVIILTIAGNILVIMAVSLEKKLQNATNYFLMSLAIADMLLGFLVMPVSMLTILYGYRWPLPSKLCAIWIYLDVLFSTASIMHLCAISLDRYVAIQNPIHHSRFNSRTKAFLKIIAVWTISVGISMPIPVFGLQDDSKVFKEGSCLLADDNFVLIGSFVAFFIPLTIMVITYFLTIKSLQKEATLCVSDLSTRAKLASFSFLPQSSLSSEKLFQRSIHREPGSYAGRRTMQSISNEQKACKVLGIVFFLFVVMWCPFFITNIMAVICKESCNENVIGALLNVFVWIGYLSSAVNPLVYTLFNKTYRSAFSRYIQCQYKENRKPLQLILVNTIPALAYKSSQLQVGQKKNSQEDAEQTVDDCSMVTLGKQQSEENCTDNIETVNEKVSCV

Several values for one entry are separate records, joined by “and”; a condition that tells them apart may be missing. Equal entries are not always repeated. Structures can show the parent of a compound that is named as a salt. Where only a bound is given, the exact number is not on record here.

For orientation: Ki means the dissociation constant of the complex between target and ligand, obtained from inhibition or displacement. High values mean a looser hold on the target, low ones a stronger hold on the target.

Chain of Beta-1 adrenergic receptor (P18090 whole entry): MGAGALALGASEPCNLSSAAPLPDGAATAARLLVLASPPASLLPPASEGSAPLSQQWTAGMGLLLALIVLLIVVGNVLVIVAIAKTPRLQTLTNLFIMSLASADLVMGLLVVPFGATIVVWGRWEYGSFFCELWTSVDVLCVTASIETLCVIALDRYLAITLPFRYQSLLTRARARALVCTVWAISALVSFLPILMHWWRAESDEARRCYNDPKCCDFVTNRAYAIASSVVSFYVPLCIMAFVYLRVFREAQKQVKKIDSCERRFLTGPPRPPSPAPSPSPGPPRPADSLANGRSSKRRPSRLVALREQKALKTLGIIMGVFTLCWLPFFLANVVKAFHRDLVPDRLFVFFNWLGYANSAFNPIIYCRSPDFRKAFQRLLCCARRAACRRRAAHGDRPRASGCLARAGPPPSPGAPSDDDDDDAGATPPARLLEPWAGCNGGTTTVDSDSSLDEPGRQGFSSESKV
Chain of D(2) dopamine receptor (P61169 whole entry): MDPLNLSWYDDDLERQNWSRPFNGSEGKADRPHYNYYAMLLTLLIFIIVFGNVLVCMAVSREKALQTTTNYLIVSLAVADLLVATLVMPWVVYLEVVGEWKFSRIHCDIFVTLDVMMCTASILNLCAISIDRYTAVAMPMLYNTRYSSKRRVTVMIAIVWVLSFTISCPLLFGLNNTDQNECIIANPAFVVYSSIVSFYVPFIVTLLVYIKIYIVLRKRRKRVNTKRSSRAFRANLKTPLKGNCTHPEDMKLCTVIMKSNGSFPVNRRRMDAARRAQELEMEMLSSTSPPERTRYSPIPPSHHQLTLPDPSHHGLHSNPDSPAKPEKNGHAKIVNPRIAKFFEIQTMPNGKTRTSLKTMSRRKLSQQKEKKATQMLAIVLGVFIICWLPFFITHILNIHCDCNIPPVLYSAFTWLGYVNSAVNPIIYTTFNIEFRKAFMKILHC
Chain of Histamine H1 receptor (P31390 whole entry): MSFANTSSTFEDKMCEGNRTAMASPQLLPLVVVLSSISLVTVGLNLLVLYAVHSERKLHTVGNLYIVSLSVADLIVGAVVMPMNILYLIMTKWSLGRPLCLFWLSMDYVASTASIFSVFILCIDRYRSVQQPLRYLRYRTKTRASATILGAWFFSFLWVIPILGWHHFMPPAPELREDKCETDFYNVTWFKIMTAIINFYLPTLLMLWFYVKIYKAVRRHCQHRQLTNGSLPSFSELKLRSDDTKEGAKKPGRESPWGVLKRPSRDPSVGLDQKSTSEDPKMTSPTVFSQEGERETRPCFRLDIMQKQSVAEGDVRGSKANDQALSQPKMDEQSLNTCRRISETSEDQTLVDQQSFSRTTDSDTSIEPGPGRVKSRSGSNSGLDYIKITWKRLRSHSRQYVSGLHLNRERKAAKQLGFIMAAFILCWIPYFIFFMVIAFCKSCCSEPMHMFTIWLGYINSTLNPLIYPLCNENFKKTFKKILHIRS
Chain of D(1A) dopamine receptor (P18901 whole entry): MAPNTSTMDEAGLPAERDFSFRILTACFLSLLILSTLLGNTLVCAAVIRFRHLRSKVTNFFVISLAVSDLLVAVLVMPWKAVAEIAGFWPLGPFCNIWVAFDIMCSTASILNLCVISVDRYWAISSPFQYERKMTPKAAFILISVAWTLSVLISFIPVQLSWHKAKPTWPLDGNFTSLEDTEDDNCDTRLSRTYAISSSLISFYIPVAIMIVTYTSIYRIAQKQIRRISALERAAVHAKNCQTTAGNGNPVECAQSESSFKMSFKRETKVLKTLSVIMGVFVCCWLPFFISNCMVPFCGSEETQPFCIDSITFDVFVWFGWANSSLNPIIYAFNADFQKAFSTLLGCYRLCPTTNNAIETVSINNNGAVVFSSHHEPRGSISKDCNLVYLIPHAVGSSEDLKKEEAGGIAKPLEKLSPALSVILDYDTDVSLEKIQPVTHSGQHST

Take `CN(C)CCCN1c2ccccc2CCc2ccccc21`: the Ki in assay [1] is greater than 10 µM; on Histamine H1 receptor, 0.002 µM; in assay [2] it was 5.7 µM; in assay [3], greater than 10 µM; in [4], greater than 10 µM; on D(2) dopamine receptor it was 0.942 µM. Besides, the Ki worked out at 3 µM on D(1A) dopamine receptor and 2.3 µM in assay [5].
Take `COc1ccc2c(c1)CN(C)CC2c1ccc(Cl)c(Cl)c1` (stereo not drawn): in [6], the affinity, expressed as Ki, was 0.0157 µM.
On to `COC(=O)[C@@H](c1ccccc1)[C@@H]1CCCCN1`, for which the inhibition constant (Ki) in assay [7] is 1 µM; in assay [6], 0.103 µM.
As for `NCCc1ccc(O)c(O)c1`, the inhibition constant Ki in [7] and in [6] was 1 µM in each case.
For the compound `CN1Cc2c(N)cccc2[C@H](c2ccccc2)C1` [(+/-)-2-Methyl-4-phenyl-1,2,3,4-tetrahydro-isoquinolin-8-ylamine], the inhibition constant (Ki) in assay [1] was greater than 10 µM; on Histamine H1 receptor, 0.035 µM; in assay [2], greater than 10 µM; in assay [3], greater than 10 µM; in assay [4], greater than 10 µM; at D(2) dopamine receptor, greater than 10 µM. The inhibitory constant (Ki) in assay [8] was greater than 10 µM; in assay [6], 0.0112 µM; on D(1A) dopamine receptor it was greater than 10 µM; in [5], greater than 10 µM.
In the case of `CC(NC(C)(C)C)C(=O)c1cccc(Cl)c1` (stereo not drawn) [BUPROPION HYDROCHLORIDE], the inhibition constant Ki is greater than 10 µM in assay [1]; greater than 10 µM in assay [2]; greater than 10 µM at D(2) dopamine receptor; greater than 10 µM in assay [8]; 0.94 µM in [6]; greater than 10 µM at D(1A) dopamine receptor. This compound also showed an inhibitory constant (Ki) in assay [5] greater than 10 µM.
Take `CN(C)CCCC1(c2ccc(F)cc2)OCc2cc(C#N)ccc21` (stereo not drawn) [CITALOPRAM HYDROBROMIDE]: the inhibition constant (Ki) (in [1]; in [2]; in assay [3]; in [4]; on D(2) dopamine receptor; in assay [8]) was greater than 10 µM each time. Further, the Ki (on D(1A) dopamine receptor; in [5]) was greater than 10 µM throughout.
`O[C@]1(c2ccc(Cl)cc2)c2ccccc2C2=NCCN21` [Mazanor] had a Ki in assay [6] of 0.008 µM.
For the compound `NCC(O)c1ccc(O)c(O)c1` (stereo not drawn) [Noradrenaline,(+)], the Ki in assay [7] amounted to 1 µM; in assay [6], 0.25 µM.
Take `Fc1ccc(C(OCCN2CCN(CCCc3ccccc3)CC2)c2ccc(F)cc2)cc1` [Vanoxerine]: the Ki in [1] was greater than 10 µM; in assay [9], 0.189 µM; at Histamine H1 receptor, 0.018 µM; in assay [2], 7 µM; in assay [3], 3.6 µM; in [4], > 10 µM and 8 µM. Also, the inhibition constant Ki on D(2) dopamine receptor is 0.27 µM; in assay [8] it was 3.5 µM; at D(1A) dopamine receptor, 1 µM; in assay [5], greater than 10 µM.
Compound `NCCc1c[nH]c2ccc(O)cc12` [[3H]-5-HT] yielded a Ki in [6] of 1 µM.
On the same count and under the same terms, for `C[C@H](N)Cc1ccccc1` [beta-aminopropylbenzene] the value was 0.059 µM and 0.058 µM.
